# Calls of active or inactive are those of the source.
# Assays:
# [1] = NIH-3T3 fibroblast cytotoxicity, dose response, cytotoxicity control, cell-based, fluorescence, Alamar Blue, secondary assay (AID 2327); format: functional;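 further: NIH-3T3 mouse fibroblasts cultured with fluconazole at 8 µg/mL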
# [2] = insulin promoter down-regulators in MIN6 cells, imaging, high-content screening, mouse beta cells (AID 1628); format: functional
# [3] = cytotoxicity in MIN6 insulinoma cells, dose response, cytotoxicity control, cell-based, mouse insulinoma (AID 2122); format: functional;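 further: confirmatory high-throughput counterscreen run to flag cytotoxic compounds; mouse MIN-6 beta cells carrying an insulin promoter eGFP reporter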
# [4] = C. albicans growth with fluconazole, confirmation, fluorescence, retest (AID 2467); format: functional, cell-based
# [5] = inhibitors of intracellular T. cruzi replication, confirmation, NIH3T3 host cells, beta-gal luminescence (AID 2044); format: functional, cell-based;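 further: intracellular parasites grown in NIH/3T3 mouse fibroblasts as host cells; luminescent beta-galactosidase reporter signal from transgenic T. cruzi replicating inside host cells; inhibitors lower the luminescence signal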
# [6] = cytotoxicity toward NIH3T3 fibroblasts, dose response, counter-screen, cell-based, ATP luminescence, mouse fibroblasts (AID 2010); format: functional;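 further: cells exposed to compound for about 90 hours before reading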
# Cytochrome P450 2D6 = Cytochrome P450 2D6 (Homo sapiens, UniProt P10635);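 further: CYP2D6 member of a cytochrome P450 panel assay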
# Chain of Cytochrome P450 2D6 (P10635 whole entry): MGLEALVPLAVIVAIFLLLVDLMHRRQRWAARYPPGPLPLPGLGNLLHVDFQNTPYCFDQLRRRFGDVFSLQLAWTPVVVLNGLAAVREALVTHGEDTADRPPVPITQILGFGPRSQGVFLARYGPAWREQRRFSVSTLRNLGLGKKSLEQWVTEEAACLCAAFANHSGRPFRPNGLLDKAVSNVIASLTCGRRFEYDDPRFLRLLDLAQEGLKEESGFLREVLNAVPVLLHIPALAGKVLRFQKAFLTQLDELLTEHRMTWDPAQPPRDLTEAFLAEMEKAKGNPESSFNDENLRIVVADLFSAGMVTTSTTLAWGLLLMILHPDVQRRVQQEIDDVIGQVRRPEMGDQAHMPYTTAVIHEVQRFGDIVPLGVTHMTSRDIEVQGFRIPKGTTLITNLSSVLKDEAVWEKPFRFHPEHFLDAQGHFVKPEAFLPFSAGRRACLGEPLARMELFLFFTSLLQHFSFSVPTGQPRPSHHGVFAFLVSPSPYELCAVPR
# Cytochrome P450 3A4 [7] = molecular target: T1, Cytochrome P450 3A4 (Homo sapiens, UniProt P08684);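 further: CYP3A4 tested as one member of a cytochrome P450 panel screen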
# T1 sequence (P08684 whole entry): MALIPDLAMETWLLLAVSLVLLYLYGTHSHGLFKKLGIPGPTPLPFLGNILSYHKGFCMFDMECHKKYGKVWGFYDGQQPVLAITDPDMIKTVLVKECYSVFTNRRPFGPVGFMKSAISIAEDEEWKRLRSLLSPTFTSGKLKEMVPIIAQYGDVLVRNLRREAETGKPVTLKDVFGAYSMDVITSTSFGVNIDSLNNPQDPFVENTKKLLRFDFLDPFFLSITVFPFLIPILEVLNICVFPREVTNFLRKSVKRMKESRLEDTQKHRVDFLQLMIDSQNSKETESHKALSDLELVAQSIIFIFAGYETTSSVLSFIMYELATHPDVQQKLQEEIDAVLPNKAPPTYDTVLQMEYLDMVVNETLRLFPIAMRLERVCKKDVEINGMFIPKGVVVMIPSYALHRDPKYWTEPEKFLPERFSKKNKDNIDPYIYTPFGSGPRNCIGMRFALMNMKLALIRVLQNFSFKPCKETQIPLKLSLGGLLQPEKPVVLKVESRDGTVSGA
# Cytochrome P450 2C9 = Cytochrome P450 2C9 (Homo sapiens, UniProt P11712)
# Chain of Cytochrome P450 2C9 (P11712 whole entry): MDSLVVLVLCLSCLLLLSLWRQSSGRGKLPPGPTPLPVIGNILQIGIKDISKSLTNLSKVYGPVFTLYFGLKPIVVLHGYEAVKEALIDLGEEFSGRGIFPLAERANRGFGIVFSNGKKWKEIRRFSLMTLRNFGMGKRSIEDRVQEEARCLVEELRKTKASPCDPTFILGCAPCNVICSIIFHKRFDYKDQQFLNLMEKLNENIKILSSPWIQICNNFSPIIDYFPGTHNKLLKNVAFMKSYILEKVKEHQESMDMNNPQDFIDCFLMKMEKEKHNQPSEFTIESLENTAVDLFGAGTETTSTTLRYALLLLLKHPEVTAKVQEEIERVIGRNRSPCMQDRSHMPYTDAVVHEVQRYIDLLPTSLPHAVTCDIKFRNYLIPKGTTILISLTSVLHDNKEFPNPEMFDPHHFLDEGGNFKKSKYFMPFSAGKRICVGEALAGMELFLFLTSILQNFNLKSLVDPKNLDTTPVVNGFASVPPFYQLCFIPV
# [8] = molecular target: T2, Polyadenylate-binding protein 1 (Homo sapiens, UniProt P11940); assay: PABP1 MLLE–PAM2 interaction inhibitors, dose response, miRNA deadenylation inhibitor project, biochemical, fluorescence polarization, Cy5-PAM2 peptide, secondary (AID 602260); format: functional; details: read-out: IC50_Mean
# T2 sequence (P11940 whole entry): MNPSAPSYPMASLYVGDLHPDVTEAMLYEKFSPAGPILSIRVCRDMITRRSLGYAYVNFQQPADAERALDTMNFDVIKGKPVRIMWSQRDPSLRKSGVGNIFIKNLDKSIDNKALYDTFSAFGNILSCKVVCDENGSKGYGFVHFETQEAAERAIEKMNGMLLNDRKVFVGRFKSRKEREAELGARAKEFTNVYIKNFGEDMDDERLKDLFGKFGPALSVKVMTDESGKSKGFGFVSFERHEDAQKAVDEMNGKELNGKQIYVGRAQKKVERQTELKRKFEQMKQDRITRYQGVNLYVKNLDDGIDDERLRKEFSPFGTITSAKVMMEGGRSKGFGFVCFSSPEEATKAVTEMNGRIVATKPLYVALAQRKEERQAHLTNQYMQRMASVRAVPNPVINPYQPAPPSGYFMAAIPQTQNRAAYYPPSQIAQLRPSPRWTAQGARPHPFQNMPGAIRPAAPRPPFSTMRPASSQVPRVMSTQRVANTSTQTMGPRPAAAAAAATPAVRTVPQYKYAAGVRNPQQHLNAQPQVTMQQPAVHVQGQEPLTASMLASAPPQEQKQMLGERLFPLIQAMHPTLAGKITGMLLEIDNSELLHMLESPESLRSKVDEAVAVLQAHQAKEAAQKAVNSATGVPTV
# [9] = molecular target: T2, Polyadenylate-binding protein 1; assay: PABP1 MLLE–PAM2 binding inhibitor potency, dose response, biochemical, fluorescence polarization, FITC-PAM2 peptide (AID 602259); format: functional; details: read-out: IC50_Mean
# [10] = molecular target: T3, Endoribonuclease toxin MazF (Escherichia coli K-12, UniProt P0AE70); assay: MazF toxin RNase activators, dose response, biochemical, fluorescence, single-stranded RNA substrate, uHTS hits (AID 588481); format: functional
# T3 sequence (P0AE70 whole entry): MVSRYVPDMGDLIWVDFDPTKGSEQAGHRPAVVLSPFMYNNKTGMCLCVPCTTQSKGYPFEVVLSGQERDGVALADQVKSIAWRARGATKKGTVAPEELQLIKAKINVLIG
# [11] = molecular target: T3, Endoribonuclease toxin MazF; assay: fluorescent RNA oligo signal without MazF, dose response, counter-screen for MazEF activator project, biochemical, fluorescence, single-stranded RNase substrate (AID 588502); format: functional
# Fatty acid synthase [12] = molecular target: T4, Fatty acid synthase (Homo sapiens, UniProt P49327); assay: FAS thioesterase domain inhibitors, dose response, biochemical, endpoint fluorescence intensity, uHTS hits (AID 624327); format: functional;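 further: fluorescence from hydrolysis of an O-methyl fluorescein acyl ester substrate by the enzyme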
# T4 sequence (P49327 whole entry, the tested form may be a part): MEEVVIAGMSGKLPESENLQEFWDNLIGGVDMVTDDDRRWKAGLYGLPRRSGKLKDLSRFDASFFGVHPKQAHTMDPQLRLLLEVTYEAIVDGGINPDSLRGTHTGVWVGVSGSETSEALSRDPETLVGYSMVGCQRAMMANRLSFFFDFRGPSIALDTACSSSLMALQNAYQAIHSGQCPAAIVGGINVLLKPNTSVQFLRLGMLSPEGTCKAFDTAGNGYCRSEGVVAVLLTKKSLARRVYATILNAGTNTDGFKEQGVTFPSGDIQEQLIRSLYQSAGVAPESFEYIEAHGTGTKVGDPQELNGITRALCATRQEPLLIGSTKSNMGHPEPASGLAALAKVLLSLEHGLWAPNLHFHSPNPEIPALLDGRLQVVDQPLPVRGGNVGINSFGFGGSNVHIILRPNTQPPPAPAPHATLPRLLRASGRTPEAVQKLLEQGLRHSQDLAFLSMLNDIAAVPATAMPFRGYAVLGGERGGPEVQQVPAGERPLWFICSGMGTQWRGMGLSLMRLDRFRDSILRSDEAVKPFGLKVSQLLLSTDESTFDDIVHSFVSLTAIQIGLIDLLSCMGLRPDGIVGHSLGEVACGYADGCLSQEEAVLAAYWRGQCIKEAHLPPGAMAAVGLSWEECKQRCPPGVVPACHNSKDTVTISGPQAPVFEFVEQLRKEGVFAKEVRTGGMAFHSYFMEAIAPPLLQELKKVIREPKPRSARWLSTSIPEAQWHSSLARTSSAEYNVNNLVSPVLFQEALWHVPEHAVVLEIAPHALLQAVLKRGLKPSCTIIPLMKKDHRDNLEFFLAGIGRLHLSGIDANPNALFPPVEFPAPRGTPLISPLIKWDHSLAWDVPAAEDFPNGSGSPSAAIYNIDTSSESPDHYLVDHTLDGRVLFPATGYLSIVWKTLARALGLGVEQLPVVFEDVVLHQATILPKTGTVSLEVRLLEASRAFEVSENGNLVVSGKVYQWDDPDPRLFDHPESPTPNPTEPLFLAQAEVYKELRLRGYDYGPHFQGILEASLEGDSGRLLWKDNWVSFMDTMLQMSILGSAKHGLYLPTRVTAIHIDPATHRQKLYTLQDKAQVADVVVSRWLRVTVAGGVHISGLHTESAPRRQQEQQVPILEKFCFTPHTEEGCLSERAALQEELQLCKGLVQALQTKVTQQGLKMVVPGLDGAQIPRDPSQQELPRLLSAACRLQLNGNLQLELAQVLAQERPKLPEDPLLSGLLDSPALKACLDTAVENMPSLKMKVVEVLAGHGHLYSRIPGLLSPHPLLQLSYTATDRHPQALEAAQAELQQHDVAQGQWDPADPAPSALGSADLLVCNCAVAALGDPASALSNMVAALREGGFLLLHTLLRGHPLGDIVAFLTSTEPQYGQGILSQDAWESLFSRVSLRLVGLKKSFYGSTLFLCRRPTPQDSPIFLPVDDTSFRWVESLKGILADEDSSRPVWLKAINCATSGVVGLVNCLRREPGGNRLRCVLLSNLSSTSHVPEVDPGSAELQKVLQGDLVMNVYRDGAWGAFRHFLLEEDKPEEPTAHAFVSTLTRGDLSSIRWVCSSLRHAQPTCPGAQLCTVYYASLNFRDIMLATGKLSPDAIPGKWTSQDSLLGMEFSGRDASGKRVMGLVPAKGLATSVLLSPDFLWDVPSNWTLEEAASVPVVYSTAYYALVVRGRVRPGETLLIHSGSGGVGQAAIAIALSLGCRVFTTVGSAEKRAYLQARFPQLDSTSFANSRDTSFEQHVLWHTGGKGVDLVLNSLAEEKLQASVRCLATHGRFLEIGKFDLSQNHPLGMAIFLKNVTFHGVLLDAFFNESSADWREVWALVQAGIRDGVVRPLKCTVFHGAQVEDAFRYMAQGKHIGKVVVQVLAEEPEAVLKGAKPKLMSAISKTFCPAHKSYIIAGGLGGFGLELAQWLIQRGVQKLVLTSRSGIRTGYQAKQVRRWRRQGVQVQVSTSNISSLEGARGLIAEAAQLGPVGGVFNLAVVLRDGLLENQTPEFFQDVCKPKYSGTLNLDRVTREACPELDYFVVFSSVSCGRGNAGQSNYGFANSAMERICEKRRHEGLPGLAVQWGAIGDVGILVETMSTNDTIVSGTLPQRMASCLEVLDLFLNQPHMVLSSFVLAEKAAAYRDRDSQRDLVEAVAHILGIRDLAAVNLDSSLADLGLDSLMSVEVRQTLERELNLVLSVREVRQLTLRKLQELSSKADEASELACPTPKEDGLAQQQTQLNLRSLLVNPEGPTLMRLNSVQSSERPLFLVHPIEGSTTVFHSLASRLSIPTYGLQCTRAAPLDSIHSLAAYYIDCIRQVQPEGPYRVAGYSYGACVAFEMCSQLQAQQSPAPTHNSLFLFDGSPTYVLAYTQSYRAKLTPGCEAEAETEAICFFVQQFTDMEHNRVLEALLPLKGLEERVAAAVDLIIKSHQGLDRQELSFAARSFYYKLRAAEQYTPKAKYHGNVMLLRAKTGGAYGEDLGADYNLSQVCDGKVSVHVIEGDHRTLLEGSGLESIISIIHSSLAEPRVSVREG
# Fatty acid synthase [13] = molecular target: T4, Fatty acid synthase; assay: FAS thioesterase domain inhibitors, dose response, biochemical, kinetic fluorescence intensity (AID 624326); format: functional;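 further: rate of fluorescence rise from hydrolysis of a fluorogenic O-methyl fluorescein ester substrate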
# Estrogen receptor = molecular target: T5, Estrogen receptor (Homo sapiens, UniProt P03372);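 further: potency for inhibiting coactivator peptide recruitment to the receptor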
# T5 sequence (P03372 whole entry): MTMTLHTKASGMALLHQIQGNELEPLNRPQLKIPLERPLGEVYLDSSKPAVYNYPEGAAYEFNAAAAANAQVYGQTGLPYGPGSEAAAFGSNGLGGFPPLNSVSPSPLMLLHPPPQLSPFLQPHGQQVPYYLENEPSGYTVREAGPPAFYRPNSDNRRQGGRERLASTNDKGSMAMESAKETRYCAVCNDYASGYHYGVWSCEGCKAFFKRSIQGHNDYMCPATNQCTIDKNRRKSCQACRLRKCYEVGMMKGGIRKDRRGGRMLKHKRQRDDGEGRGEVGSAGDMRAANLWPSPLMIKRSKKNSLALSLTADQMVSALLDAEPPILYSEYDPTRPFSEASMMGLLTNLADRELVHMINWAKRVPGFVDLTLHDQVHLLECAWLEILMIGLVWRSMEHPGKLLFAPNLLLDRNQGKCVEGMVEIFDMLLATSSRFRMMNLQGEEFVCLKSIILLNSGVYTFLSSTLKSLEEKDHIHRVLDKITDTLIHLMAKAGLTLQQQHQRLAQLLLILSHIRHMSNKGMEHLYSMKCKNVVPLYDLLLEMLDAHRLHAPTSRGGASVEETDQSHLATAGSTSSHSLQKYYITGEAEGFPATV
# [14] = microbe, parasite or virus in culture; format: functional; details: Mycobacterium tuberculosis
# Cytochrome P450 3A4 [15] = molecular target: T1, Cytochrome P450 3A4; remark: listed apart in the source
# [16] = Luminescence Cell-Based Dose Confirmation HTS to Identify Activators of 5'UTR Stem-Loop Driven Alpha-Synuclein mRNA Translation in H4 Neuroglioblastoma Cells. [Related pubchem assays: 1829 (Project Summary), 1814 (Primary HTS)]; format: functional
# [17] = Luminescence Cell-Based Dose Response HTS to Identify Activators of Luciferase Translation or Activity in H4 […] Cells. [Related pubchem assays: 1829 (Project Summary), 1814 (Primary HTS)]; format: functional
# cells [18] = format: functional, cell-based
# H4 = assay: Luminescence Cell-Based Dose Response HTS to Identify Activators of 5'UTR Stem-Loop Driven Prion Protein mRNA Translation in H4 Neuroglioblastoma Cells. [Related pubchem assays: 1829 (Project Summary), 1814 (Primary HTS)]; format: functional; details: Homo sapiens
# cells [19] = format: functional, cell-based; remark: listed apart in the source
# Cytochrome P450 1A2 = molecular target: T6, Cytochrome P450 1A2 (Homo sapiens, UniProt P05177);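 further: PubChem cytochrome P450 panel assay, CYP1A2 panel member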
# T6 sequence (P05177 whole entry): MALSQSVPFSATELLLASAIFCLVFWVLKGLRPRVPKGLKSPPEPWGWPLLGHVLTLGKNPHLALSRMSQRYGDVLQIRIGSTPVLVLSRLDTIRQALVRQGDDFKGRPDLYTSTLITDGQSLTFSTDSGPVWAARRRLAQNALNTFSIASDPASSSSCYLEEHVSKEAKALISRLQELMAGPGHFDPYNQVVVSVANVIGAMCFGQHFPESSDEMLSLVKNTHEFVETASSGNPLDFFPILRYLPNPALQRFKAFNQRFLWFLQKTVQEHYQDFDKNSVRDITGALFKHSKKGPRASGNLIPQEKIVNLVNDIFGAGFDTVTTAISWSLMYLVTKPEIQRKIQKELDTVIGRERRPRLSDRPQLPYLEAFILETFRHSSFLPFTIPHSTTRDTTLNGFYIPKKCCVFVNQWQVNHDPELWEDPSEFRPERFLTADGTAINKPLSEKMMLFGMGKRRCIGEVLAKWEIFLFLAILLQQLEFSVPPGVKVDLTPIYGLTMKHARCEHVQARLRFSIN
# Nonstructural protein 1 = Nonstructural protein 1 (Influenza A virus, UniProt Q194T2); format: functional, Influenza A virus (A/California/07/2009(H1N1))
# Chain of Nonstructural protein 1 (Q194T2 whole entry): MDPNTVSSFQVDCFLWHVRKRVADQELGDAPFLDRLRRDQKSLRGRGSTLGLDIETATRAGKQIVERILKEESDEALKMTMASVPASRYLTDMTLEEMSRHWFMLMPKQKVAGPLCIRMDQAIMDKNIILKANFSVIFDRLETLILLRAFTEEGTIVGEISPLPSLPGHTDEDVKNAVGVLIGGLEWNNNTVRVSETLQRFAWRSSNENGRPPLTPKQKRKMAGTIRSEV
# H9c2 = assay: cells; format: functional, cell-based; details: Rattus norvegicus, H9c2, Myocardium;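 further: confirmatory concentration-response retest of ultra-high-throughput screening hits for modulation of myocardial damage; cell death induced by hydrogen peroxide oxidative stress; compound pretreatment for 60 min then peroxide exposure for 2 h; potency is for protecting the cells against peroxide damage rather than for killing them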
# [20] = THP-1 cell cytotoxicity, dose response, cytotoxicity control for non-replicating M. tuberculosis project (AID 489025); format: functional
# [21] = Vero E6 cell cytotoxicity, dose response, cytotoxicity control for non-replicating M. tuberculosis project, secondary assay (AID 492998); format: functional, VeroE6; details: Vero C1008
# INS1 = assay: beta cell apoptosis inhibitors, cytokine rescue, dose response, luminescence, retest (AID 449756); format: functional, cell-based; details: Rattus norvegicus;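 further: cell death triggered by IL-1 beta plus TNF-alpha plus IFN-gamma mixture; protective hits raise ATP signal compared with cytokine alone wells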
compound,measurement,setting,value
C(#Cc1ccccc1)C[N+]1(CC#Cc2ccccc2)CCCCC1,EC50,[1],> 160 µM (inactive)
same,IC50,[2],< 0.25 µM (active)
same,IC50,[3],< 0.25 µM (active)
same,EC50,[4],> 38 µM (not active)
same,EC50,[5],1.88 µM (active)
same,EC50,[6],> 60 µM (not active)
CCCn1nc2cc(C(=O)NC3CCCc4ccccc43)ccc2c1OCC (stereo not given),AC50,Cytochrome P450 2D6,25.1 µM (inconclusive)
same,AC50,Cytochrome P450 3A4 [7],15.8 µM (inconclusive)
same,AC50,Cytochrome P450 2C9,inconclusive
CCC1CCCCN1C(=S)NC(=O)c1cccc([N+](=O)[O-])c1 (stereo not given),IC50,[8],> 66 µM (inactive)
same,IC50,[9],> 66 µM (inactive)
COc1ccc(OCCNc2cc(Cl)ccc2[N+](=O)[O-])cc1,EC50,[10],> 99 µM (inactive)
same,EC50,[11],> 99 µM (inactive)
O=C(CSc1ccc([N+](=O)[O-])cn1)Nc1ccc2c(c1)OCO2,IC50,Fatty acid synthase [12],0.981 µM (active)
same,IC50,Fatty acid synthase [13],0.951 µM (active)
NC(Cc1ccc([N+](=O)[O-])cc1)=NOC(=O)c1ccc2ccccc2c1,IC50,Estrogen receptor,> 50 µM (not active)
same,CC50,[14],33 µM (active)
COc1ccc(C(=O)N2CCC3(CC2)CCN(c2ccccc2)CC3)cc1,AC50,Cytochrome P450 3A4 [15],inconclusive
COc1ccccc1OCC(=O)Sc1ccc(C)cc1,IC50,[8],> 66 µM (inactive)
same,IC50,[9],> 66 µM (inactive)
Cc1cc(C(=O)CSc2nc3ccccc3[nH]2)c(C)n1Cc1ccco1,IC50,[2],1.93 µM (active)
same,IC50,[3],1.29 µM (active)
COc1ccc2oc(=O)c(C(=O)NC3CCCCCC3)cc2c1,EC50,[16],28.6 µM (active)
same,EC50,[17],32.6 µM (active)
same,EC50,cells [18],> 350 µM (not active)
same,EC50,H4,19.8 µM (active)
same,EC50,cells [19],> 350 µM (not active)
O=C(c1cccc(F)c1)N1CCC2(CC1)CCN(c1ccccc1)CC2,AC50,Cytochrome P450 3A4 [15],inconclusive
CCS(=O)(=O)N1CCN(c2c(Cl)cccc2[N+](=O)[O-])CC1,AC50,Cytochrome P450 1A2,15.8 µM (inconclusive)
same,AC50,Cytochrome P450 3A4 [15],inconclusive
O=[N+]([O-])c1ccc(S(=O)(=O)Nc2ccc(-c3ccccc3)cc2)cc1,IC50,Fatty acid synthase [12],5.95 µM (active)
same,IC50,Fatty acid synthase [13],6.47 µM (active)
CCOc1cccc(-c2c(C(=O)N/N=C(\C)c3ccccn3)nnn2-c2nonc2N)c1,EC50,[1],18.2 µM (active)
same,EC50,cells [18],6.32 µM (active)
same,EC50,[4],> 38 µM (not active)
same,EC50,cells [19],> 350 µM (not active)
same,IC50,Nonstructural protein 1,3.36 µM (active)
same,IC50,H9c2,> 79 µM (inactive)
C/C(=N\NC(=S)NCCc1ccccc1)c1cccc(Br)c1,IC50,[8],> 66 µM (inactive)
same,IC50,[9],> 66 µM (inactive)
CCOc1ccc(C(=O)N/N=C(/C)C2C(=O)c3ccccc3C2=O)cc1,CC50,[20],> 40 µM (active)
same,CC50,[21],> 20 µM (active)
COc1ccc(/C=N/NC(=O)c2nc(-c3ccccc3)n(-c3ccccc3)n2)c(O)c1,EC50,cells [18],10.1 µM (active)
same,EC50,cells [19],> 350 µM (not active)
same,AC50,INS1,1.47 µM (active)

# — ChEMBL document CHEMBL1201862, “PubChem BioAssay data set” (2004)
